US10738056B2 (Aduro BioTech, Inc., priority 2017, dated 2020)

Molecular target: Human cGAS amino acids 155-522 (Homo sapiens (Human), UniProt Q8N884)
Assay: cGAS biochemical activity assay (ATP remaining, Kinase-Glo Max luminescence)
Details: human cGAS 155-522, ATP remaining (Kinase-Glo Max); read-out: cGAS IC50

Human cGAS amino acids 155-522, sequence (Q8N884 157-522): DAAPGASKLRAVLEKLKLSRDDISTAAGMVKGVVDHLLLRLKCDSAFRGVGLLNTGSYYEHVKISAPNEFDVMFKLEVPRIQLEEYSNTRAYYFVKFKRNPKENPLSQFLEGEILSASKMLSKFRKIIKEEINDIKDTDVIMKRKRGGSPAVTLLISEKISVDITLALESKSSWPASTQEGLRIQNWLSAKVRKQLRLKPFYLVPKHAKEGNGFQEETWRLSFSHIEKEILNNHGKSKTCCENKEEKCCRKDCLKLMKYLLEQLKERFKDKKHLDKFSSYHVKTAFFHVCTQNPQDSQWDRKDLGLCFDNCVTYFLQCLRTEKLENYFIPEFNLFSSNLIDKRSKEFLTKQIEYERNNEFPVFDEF

Compound	IC50 [µM]
COc1cccc2oc(-c3c(C(=O)NCCN(C)C)[nH]c4c(-c5ccccc5)c(C(F)(F)F)nn4c3=O)nc12 [Compound C1212, N-(2-(dimethylamino)ethyl)-6-(4-methoxybenzo[d]oxazol-2-yl)-7-oxo-3-phenyl-2-(trifluoromethyl)-4,7-dihydropyrazolo[1,5-a]pyrimidine-5-carboxamide]	20 to 250
COc1c(Br)cccc1NC(=O)c1c(C)[nH]c2c(-c3ccccc3)c(C(F)(F)F)nn2c1=O [Compound A1130, N-(3-bromo-2-methoxyphenyl)-5-methyl-7-oxo-3-phenyl-2-(trifluoromethyl)-4,7-dihydropyrazolo[1,5-a]pyrimidine-6-carboxamide]	20 to 250
Cc1[nH]c2c(-c3cccc(F)c3)c(C(F)(F)F)nn2c(=O)c1-c1nc2c(o1)CCCC2 [Compound C1035, 3-(3-fluorophenyl)-5-methyl-6-(4,5,6,7-tetrahydrobenzo[d]oxazol-2-yl)-2-(trifluoromethyl)pyrazolo[1,5-a]pyrimidin-7(4H)-one]	> 250
Cc1[nH]c2c(-c3ccccc3)c(C(F)(F)F)nn2c(=O)c1-c1nnc(-c2ccc(N)cc2)o1 [Compound D1081, 6-(5-(4-aminophenyl)-1,3,4-oxadiazol-2-yl)-5-methyl-3-phenyl-2-(trifluoromethyl)pyrazolo[1,5-a]pyrimidin-7(4H)-one]	> 250
COc1ncccc1-c1nnc(-c2c(C)[nH]c3c(-c4ccccc4)c(C(F)(F)F)nn3c2=O)o1 [Compound D1064, 6-(5-(2-methoxypyridin-3-yl)-1,3,4-oxadiazol-2-yl)-5-methyl-3-phenyl-2-(trifluoromethyl)pyrazolo[1,5-a]pyrimidin-7(4H)-one]	> 250
COc1ccc(CN)c2oc(-c3c(C)[nH]c4c(-c5ccccc5)c(C(F)(F)F)nn4c3=O)nc12 [Compound C1191, 6-(7-(aminomethyl)-4-methoxybenzo[d]oxazol-2-yl)-5-methyl-3-phenyl-2-(trifluoromethyl)pyrazolo[1,5-a]pyrimidin-7(4H)-one]	> 250
COc1ccc(F)cc1NC(=O)c1c(C)[nH]c2c(-c3ccccc3)c(C(F)(F)F)nn2c1=O [Compound A1071, N-(5-fluoro-2-methoxyphenyl)-5-methyl-7-oxo-3-phenyl-2-(trifluoromethyl)-4,7-dihydropyrazolo[1,5-a]pyrimidine-6-carboxamide]	20 to 250
COc1cccc2oc(-c3c(C)[nH]c4c(-c5ccc(C)cc5)c(C(F)(F)F)nn4c3=O)nc12 [Compound C1171]	20 to 250
COc1cccc2oc(-c3c(C)[nH]c4c(-c5ccc(C#N)cc5)c(C(F)(F)F)nn4c3=O)nc12 [Compound C1164, 4-(6-(4-methoxybenzo[d]oxazol-2-yl)-5-methyl-7-oxo-2-(trifluoromethyl)-4,7-dihydropyrazolo[1,5-a]pyrimidin-3-yl)benzonitrile]	> 250
Cc1[nH]c2c(-c3ccccc3)c(C(F)(F)F)nn2c(=O)c1-c1nnc(C2CCCCC2)s1 [Compound D1006, 6-(5-cyclohexyl-1,3,4-thiadiazol-2-yl)-5-methyl-3-phenyl-2-(trifluoromethyl)pyrazolo[1,5-a]pyrimidin-7(4H)-one]	< 20
COc1nc(NC(C)=O)nc2oc(-c3c(C)[nH]c4c(-c5ccccc5)c(C(F)(F)F)nn4c3=O)nc12 [Compound C1150, N-(7-methoxy-2-(5-methyl-7-oxo-3-phenyl-2-(trifluoromethyl)-4,7-dihydropyrazolo[1,5-a]pyrimidin-6-yl)oxazolo[5,4-d]pyrimidin-5-yl)acetamide]	20 to 250
COc1ccc(-c2c(C(F)(F)F)nn3c(=O)c(-c4nc5c(OC)cccc5o4)c(C)[nH]c23)cc1 [Compound C1115, 6-(4-methoxybenzo[d]oxazol-2-yl)-3-(4-methoxyphenyl)-5-methyl-2-(trifluoromethyl)pyrazolo[1,5-a]pyrimidin-7(4H)-one]	20 to 250
Cc1[nH]c2c(C3CC3)c(C(F)(F)F)nn2c(=O)c1Cc1ccccc1 [Compound C1264, 6-benzyl-3-cyclopropyl-5-methyl-2-(trifluoromethyl)pyrazolo[1,5-a]pyrimidin-7(4H)-one]	> 250
COc1cncc(NC(=O)c2c(C)[nH]c3c(-c4ccccc4)c(C(F)(F)F)nn3c2=O)c1 [Compound A1094, N-(5-methoxypyridin-3-yl)-5-methyl-7-oxo-3-phenyl-2-(trifluoromethyl)-4,7-dihydropyrazolo[1,5-a]pyrimidine-6-carboxamide]	< 20
COCCOc1nn2c(=O)c(-c3nc4c(OC)cccc4o3)c(C)[nH]c2c1-c1ccccc1 [Compound C1083, 6-(4-methoxybenzo[d]oxazol-2-yl)-2-(2-methoxyethoxy)-5-methyl-3-phenylpyrazolo[1,5-a]pyrimidin-7(4H)-one]	> 250
COc1cccc2oc(-c3c(P(C)(C)=O)[nH]c4c(-c5ccccc5)c(C(F)(F)F)nn4c3=O)nc12 [Compound C1284, 5-(dimethylphosphoryl)-6-(4-methoxybenzo[d]oxazol-2-yl)-3-phenyl-2-(trifluoromethyl)pyrazolo[1,5-a]pyrimidin-7(4)-one]	< 20

Compound	IC50 [µM]
COc1cccc2oc(-c3c(COCC(N)=O)[nH]c4c(-c5ccccc5)c(C(F)(F)F)nn4c3=O)nc12 [Compound C1198, 2-((6-(4-methoxybenzo[d]oxazol-2-yl)-7-oxo-3-phenyl-2-(trifluoromethyl)-4,7-dihydropyrazolo[1,5-a]pyrimidin-5-yl)methoxy)acetamide]	20 to 250
Cc1[nH]c2c(-c3ccccc3)c(C(F)(F)F)nn2c(=O)c1CC(=O)Nc1ccccc1N [Compound B1001, N-(2-aminophenyl)-2-(5-methyl-7-oxo-3-phenyl-2-(trifluoromethyl)-4,7-dihydropyrazolo[1,5-a]pyrimidin-6-yl)acetamide]	20 to 250
Cc1nnc(-c2c(C)[nH]c3c(-c4ccccc4)c(C(F)(F)F)nn3c2=O)o1 [Compound D1001, 5-methyl-6-(5-methyl-1,3,4-oxadiazol-2-yl)-3-phenyl-2-(trifluoromethyl)pyrazolo[1,5-a]pyrimidin-7(4H)-one]	20 to 250
Cc1[nH]c2c(-c3ccccc3)c(C(F)(F)F)nn2c(=O)c1-c1nnc(N)o1 [Compound D1075, 6-(5-amino-1,3,4-oxadiazol-2-yl)-5-methyl-3-phenyl-2-(trifluoromethyl)pyrazolo[1,5-a]pyrimidin-7(4H)-one]	20 to 250
Cc1[nH]c2c(-c3ccccc3)c(C(F)(F)F)nn2c(=O)c1C(=O)N[C@H]1CCCC[C@@H]1O [Compound A1091, N-((1S,2S)-2-hydroxycyclohexyl)-5-methyl-7-oxo-3-phenyl-2-(trifluoromethyl)-4,7-dihydropyrazolo[1,5-a]pyrimidine-6-carboxamide]	20 to 250
Cc1[nH]c2c(-c3ccccc3)c(C(F)(F)F)nn2c(=O)c1-c1nnc(C(C)C)o1 [Compound D1005, 6-(5-isopropyl-1,3,4-oxadiazol-2-yl)-5-methyl-3-phenyl-2-(trifluoromethyl)pyrazolo[1,5-a]pyrimidin-7(4H)-one]	20 to 250
Cc1[nH]c2c(-c3ccccc3)c(C(F)(F)F)nn2c(=O)c1-c1ccncc1 [Compound C1001, 5-methyl-3-phenyl-6-(pyridin-4-yl)-2-(trifluoromethyl)pyrazolo[1,5-a]pyrimidin-7(4H)-one]	20 to 250
COC1CCCCC1NC(=O)c1c(C)[nH]c2c(-c3ccccc3)c(C(F)(F)F)nn2c1=O (single isomer, unassigned) [Compound A1085, N-(2-methoxycyclohexyl)-5-methyl-7-oxo-3-phenyl-2-(trifluoromethyl)-4,7-dihydropyrazolo[1,5-a]pyrimidine-6-carboxamide]	20 to 250
COc1cccc2oc(-c3c(C(=O)N[C@H](CO)C(C)C)[nH]c4c(-c5ccccc5)c(C(F)(F)F)nn4c3=O)nc12 [Compound C1208, (S)-N-(1-hydroxy-3-methylbutan-2-yl)-6-(4-methoxybenzo[d]oxazol-2-yl)-7-oxo-3-phenyl-2-(trifluoromethyl)-4,7-dihydropyrazolo[1,5-a]pyrimidine-5-carboxamide]	20 to 250
Cc1[nH]c2c(-c3ccccc3)c(C(F)(F)F)nn2c(=O)c1-c1nnc(-c2cccnc2O)o1 [Compound D1067, 6-(5-(2-hydroxypyridin-3-yl)-1,3,4-oxadiazol-2-yl)-5-methyl-3-phenyl-2-(trifluoromethyl)pyrazolo[1,5-a]pyrimidin-7(4H)-one]	< 20
COc1cccc2oc(-c3c(C)[nH]c4c(-c5ccccc5)c(S(C)(=O)=O)nn4c3=O)nc12 [Compound C1068, 6-(4-methoxybenzo[d]oxazol-2-yl)-5-methyl-2-(methylsulfonyl)-3-phenylpyrazolo[1,5-a]pyrimidin-7(4H)-one]	20 to 250
CC(=O)Nc1ccccc1NC(=O)c1c(C)[nH]c2c(-c3ccccc3)c(C(F)(F)F)nn2c1=O [Compound A1021, N-(2-acetamidophenyl)-5-methyl-7-oxo-3-phenyl-2-(trifluoromethyl)-4,7-dihydropyrazolo[1,5-a]pyrimidine-6-carboxamide]	20 to 250
Cc1[nH]c2c(-c3ccccc3)c(C(F)(F)F)nn2c(=O)c1-c1nnc(N2CCN(C)CC2)o1 [Compound D1058, 5-methyl-6-(5-(4-methylpiperazin-1-yl)-1,3,4-oxadiazol-2-yl)-3-phenyl-2-(trifluoromethyl)pyrazolo[1,5-a]pyrimidin-7(4H)-one]	20 to 250
Cc1[nH]c2c(-c3ccccc3)c(C(F)(F)F)nn2c(=O)c1-c1nnc(C2CCCNC2)o1 (centres unmarked) [Compound D1036, 5-methyl-3-phenyl-6-(5-(piperidin-3-yl)-1,3,4-oxadiazol-2-yl)-2-(trifluoromethyl)pyrazolo[1,5-a]pyrimidin-7(4H)-one]	20 to 250
Cc1[nH]c2c(-c3ccccc3)c(C(F)(F)F)nn2c(=O)c1CC(=O)Nc1ccncc1 [Compound B1004, 2-(5-methyl-7-oxo-3-phenyl-2-(trifluoromethyl)-4,7-dihydropyrazolo[1,5-a]pyrimidin-6-yl)-N-(pyridin-4-yl)acetamide]	20 to 250
Cc1[nH]c2c(-c3ccccc3)c(C(F)(F)F)nn2c(=O)c1C(=O)Nc1nn(C)cc1C#N [Compound A1090, N-(4-cyano-1-methyl-1H-pyrazol-3-yl)-5-methyl-7-oxo-3-phenyl-2-(trifluoromethyl)-4,7-dihydropyrazolo[1,5-a]pyrimidine-6-carboxamide]	< 20
